PMC8390754, “Engineering and functional characterization of a proton-driven β-lactam antibiotic translocation module for bionanotechnological applications” (Scientific Reports, 2021)

Tests used:
[1] = biological target: T1, YePEPT (Yersinia enterocolitica, UniProt A0A2R9TD79, K314A); experiment: [3H]Ala-Ala uptake competition in E. coli at […]; format: cell-based
T1 construct: gene YEP4_02370

[2] = biological target: T2, YePEPT (Yersinia enterocolitica, UniProt A0A2R9TD79, F311Y/K314A); experiment: [3H]Ala-Ala uptake competition in E. coli overexpressing the transporter; transport confirmed by SSM electrophysiology in proteoliposomes; format: cell-based
T2 construct: gene YEP4_02370

[3] = tested on: C[C@H](N)C(=O)N[C@@H](C)C(=O)O; experiment: radioligand uptake kinetics in E. coli; SSM electrophysiology in proteoliposomes; format: cell-based, Yersinia enterocolitica
[4] = biological target: T3, YePEPT (Yersinia enterocolitica, UniProt A0A2R9TD79); experiment: [3H]Ala-Ala uptake competition in E. coli at […]; format: cell-based; conditions: read-out: % inhibition at 5 mM
T3 construct: gene YEP4_02370; wild-type
T3 sequence (A0A2R9TD79 1-511): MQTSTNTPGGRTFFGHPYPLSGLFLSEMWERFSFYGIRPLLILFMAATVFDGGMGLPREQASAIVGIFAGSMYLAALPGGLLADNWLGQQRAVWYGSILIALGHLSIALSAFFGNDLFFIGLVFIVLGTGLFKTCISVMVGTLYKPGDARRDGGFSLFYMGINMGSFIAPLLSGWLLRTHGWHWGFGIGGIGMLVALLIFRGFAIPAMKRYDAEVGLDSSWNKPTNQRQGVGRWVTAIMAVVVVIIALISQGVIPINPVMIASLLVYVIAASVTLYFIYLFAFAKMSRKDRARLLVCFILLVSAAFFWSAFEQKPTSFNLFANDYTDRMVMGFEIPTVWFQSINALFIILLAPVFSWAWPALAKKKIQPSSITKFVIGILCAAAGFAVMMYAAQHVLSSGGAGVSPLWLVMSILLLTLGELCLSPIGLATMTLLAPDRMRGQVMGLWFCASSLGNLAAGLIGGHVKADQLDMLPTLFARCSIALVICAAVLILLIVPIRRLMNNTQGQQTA

[5] = biological target: T2, YePEPT; experiment: SSM electrophysiology with proteoliposomes of purified transporter ([…]); also uptake inhibition in cells; format: biochemical

With CC1=C(C(=O)O)N2C(=O)[C@@H](NC(=O)[C@H](N)c3ccc(O)cc3)[C@H]2SC1 [compound 6, cefadroxil] the “[3H]Ala-Ala uptake competition in E. coli at 5 mM” value [1] was “YePEPT^K314A (Fig. 2c) showed a strong increase in affinity for amoxicillin and cefadroxil” and the IC50 [2] was 229 µM.

Work on “YePEPT (Yersinia enterocolitica subsp. palearctica YE-P4; F311Y/K314A)” yielded a Km [3] of 199 µM.

CC=CC1=C(C(=O)O)N2C(=O)[C@@H](NC(=O)[C@H](N)c3ccc(O)cc3)[C@H]2SC1 [compound 7, cefprozil] was tested, and the IC50 [2] was 32 µM.

For CC1(C)S[C@@H]2[C@H](NC(=O)[C@H](N)c3ccccc3)C(=O)N2[C@H]1C(=O)O [compound 1, ampicillin], the inhibition at 5000 µM [4] was roughly 50% and the “% transported charge relative to Ala-Ala” value [5] was 9 % transported charge relative to Ala-Ala.

In the case of CC1(C)S[C@@H]2[C@H](NC(=O)[C@H](N)c3ccc(O)cc3)C(=O)N2[C@H]1C(=O)O [compound 2, amoxicillin], the inhibition at 5000 µM [4] is reported as roughly 50%, the “[3H]Ala-Ala uptake competition in E. coli at 5 mM” value [1] is reported as “YePEPT^K314A (Fig. 2c) showed a strong increase in affinity for amoxicillin and cefadroxil” and the IC50 [2] is reported as 106 µM.
